Target: T1, Anthrax Lethal Factor (ALF) (Bacillus anthracis, UniProt P15917)
Assay: not given
Assay type: biochemical
Settings: not given

T1 sequence (P15917 34-809 limits assumed): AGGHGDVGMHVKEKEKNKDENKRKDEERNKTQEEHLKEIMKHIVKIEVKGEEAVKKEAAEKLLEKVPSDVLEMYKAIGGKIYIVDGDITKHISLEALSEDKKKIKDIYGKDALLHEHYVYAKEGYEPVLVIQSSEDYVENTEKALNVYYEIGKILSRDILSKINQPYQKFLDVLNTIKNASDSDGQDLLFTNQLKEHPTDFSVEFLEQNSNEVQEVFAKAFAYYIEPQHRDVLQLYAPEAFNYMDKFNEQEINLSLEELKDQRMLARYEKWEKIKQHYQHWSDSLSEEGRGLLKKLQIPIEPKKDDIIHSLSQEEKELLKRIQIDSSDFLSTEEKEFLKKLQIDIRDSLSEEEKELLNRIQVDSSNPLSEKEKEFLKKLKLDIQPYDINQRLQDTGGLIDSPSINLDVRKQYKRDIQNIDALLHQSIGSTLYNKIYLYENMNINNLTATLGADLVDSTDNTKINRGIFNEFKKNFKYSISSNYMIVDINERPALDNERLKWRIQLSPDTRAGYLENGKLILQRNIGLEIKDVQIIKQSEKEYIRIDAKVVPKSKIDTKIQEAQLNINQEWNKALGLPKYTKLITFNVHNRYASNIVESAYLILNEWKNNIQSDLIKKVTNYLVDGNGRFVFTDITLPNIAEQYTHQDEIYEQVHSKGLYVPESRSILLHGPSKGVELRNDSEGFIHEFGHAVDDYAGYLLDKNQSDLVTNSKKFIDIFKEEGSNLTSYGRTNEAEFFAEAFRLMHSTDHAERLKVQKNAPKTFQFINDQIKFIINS

| Compound | Activity by Gel, % @ 200 | Activity by Gel, % @ 100 |
| --- | --- | --- |
| CC(C)c1nc(-c2ccccc2)c(-c2ccccc2)n(O)c1=O [Compound 1, 3-isoprpyl-5,6dipheny-1-1-hydroxy-2-oxo-1,2-dihydropyrazine] | 0% @ 200 | – |
| Cc1c(-c2ccccc2)nc(CC(C)C)c(=O)n1O [Compound 3, 1-hydroxy-6-methyl-3-(2-methylpropyl)-5-phenylhydropyrazin-2-one] | 0% @ 200 | – |
| O=c1c(Cc2ccccc2)nc(-c2ccccc2)c(-c2ccccc2)n1O [Compound 5, 1-hydroxy-5,6-diphenyl-3-benzylhydropyrazin-2-one] | 45% @ 200 | – |
| O=c1c(Cc2ccc(-c3ccccc3)cc2)nc(-c2ccccc2)c(-c2ccccc2)n1O [Compound 11, 3-(4′-phenyl)-benzyl-5,6diphenyl-1-hydroxy-2-oxo-1,2-dihydropyrazine] | – | 2% @ 100 |
| CC(C)Cc1nc(-c2ccccc2)cn(O)c1=O [Compound 4, 1-hydroxy-3-(2-methylpropyl)-5-phenylhydropyrazin-2-one] | 0% @ 200 | – |
| CCc1nc(C(C)C)c(=O)n(O)c1CC [Compound 2, 3-isopropyl-5,6diethyl-1-hydroxy-2-oxo-1,2dihydropyrazine] | 0% @ 200 | – |

Target: T1, Anthrax Lethal Factor (ALF)
Assay: biochemical
Assay type: biochemical
Settings: not given

| Compound | Activity by plate, % @ 100 | IC50 |
| --- | --- | --- |
| O=c1c(Cc2ccccc2)nc(-c2cccs2)cn1O [Compound 16, 1-hydroxy-3-benzyl-5-(2-thienyl)hydropyrazin-2-one] | 33% @ 100 | – |
| O=c1c(Cc2ccc(-c3ccccc3)cc2)nc(-c2ccc3c(c2)OCO3)cn1O [Compound 32, 5-(2H-benzo[d]1,3-dioxolen-5-yl)-1-hydroxy-3-[(4-phenylphenyl)methyl] hydropyrazin-2-one] | 40% @ 100 | – |
| Cc1ccc(-c2cn(O)c(=O)c(Cc3ccc(-c4ccccc4)cc3)n2)cc1 [Compound 46, 1-hydroxy-5-(4-methylphenyl)-3-[(4-phenylphenyl)methyl]hydropyrazin-2-one] | 46% @ 100 | – |
| O=c1c(Cc2ccccc2)nc(-c2ccc([N+](=O)[O-])cc2)cn1O [Compound 23, 1-hydroxy-5-(4-nitrophenyl)-3-benzylhydropyrazin-2-one] | 7% @ 100 | – |
| O=c1c(Cc2ccc(-c3ccccc3)cc2)nc(-c2ccc(F)cc2)cn1O [Compound 27, 5-(4-fluorophenyl)-1-hydroxy-3-[(4-phenylphenyl)methyl]hydropyrazin-2-one] | 12% @ 100 | – |
| O=c1c(Cc2ccc(-c3ccccc3)cc2)nc(-c2ccc(C(F)(F)F)cc2)cn1O [Compound 48, 1-hydroxy-3-[(4-phenylphenyl)methyl]-5-[4-(trifluoromethyl)phenyl] hydropyrazin-2-one] | 25% @ 100 | – |
| O=c1c(Cc2ccc(-c3ccccc3)cc2)nc(-c2ccc(C3CCCCC3)cc2)cn1O [Compound 29, 5-(4-cyclohexylphenyl)-1-hydroxy-3-[(4-phenylphenyl)methyl] hydropyrazin-2-one] | 59% @ 100 | – |
| O=c1c(Cc2ccccc2)nc(-c2ccc3ccccc3c2)cn1O [Compound 19, 1-hydroxy-5-(2-naphthyl)-3-benzylhydropyrazin-2-one] | 59% @ 100 | – |
| CC(=O)Nc1ccc(-c2cn(O)c(=O)c(Cc3ccccc3)n2)cc1 [Compound 25, N-{4-[4-hydroxy-5-oxo-6-benzyl-4-hydropyrazin-2-yl]phenyl}acetamide] | 19% @ 100 | – |
| CCCCCc1ccc(-c2cn(O)c(=O)c(Cc3ccc(-c4ccccc4)cc3)n2)cc1 [Compound 47, 1-hydroxy-5-(4-pentylphenyl)-3-[(4-phenylphenyl)methyl]hydropyrazin-2-one] | 39% @ 100 | – |
| O=c1c(Cc2ccc(-c3ccccc3)cc2)nc(-c2ccc(-c3ccccc3)cc2)cn1O [Compound 28, 1-hydroxy-5-(4-phenylphenyl)-3-[(4-phenylphenyl)methyl]hydropyrazin-2-one] | – | 12 µM |
| Cc1c(-c2ccccc2)nc(Cc2ccccc2)c(=O)n1O [Compound 6, 1-hydroxy-6-methyl-5-phenyl-3-benzylhydropyrazin-2-one] | – | 70 µM |
| O=c1c(Cc2ccccc2)nc(-c2ccc(N3CCOCC3)cc2)cn1O [Compound 14, 1-hydroxy-5-(4-morpholin-4-ylphenyl)-3-benzylhydropyrazin-2-one] | 0% @ 100 | – |
| O=c1c(Cc2ccccc2)nc(-c2ccccc2)cn1O [Compound 7, 1-hydroxy-5-phenyl-3-benzylhydropyrazin-2-one] | – | 15 µM |
| O=c1c(Cc2ccccc2)nc(-c2ccc(F)cc2)cn1O [Compound 15, 5-(4-fluorophenyl)-1-hydroxy-3-benzylhydropyrazin-2-one] | 33% @ 100 | – |
| CCCCCc1ccc(-c2cn(O)c(=O)c(Cc3ccccc3)n2)cc1 [Compound 42, 1-hydroxy-5-(4-pentylphenyl)-3-benzylhydropyrazin-2-one] | 16% @ 100 | – |
| N#Cc1ccc(-c2cn(O)c(=O)c(Cc3ccc(-c4ccccc4)cc3)n2)cc1 [Compound 33, 4-{4-hydroxy-5-oxo-6-[(4-phenylphenyl)methyl]-4-hydropyrazin-2-yl} benzenecarbonitrile] | 51% @ 100 | – |

| Compound | Activity by plate, % @ 100 | IC50 |
| --- | --- | --- |
| O=c1c(Cc2ccccc2)nc(-c2ccccc2)c(-c2ccccc2)n1O [Compound 5, 1-hydroxy-5,6-diphenyl-3-benzylhydropyrazin-2-one] | – | 6 µM |
| O=c1c(Cc2ccccc2)nc(-c2ccc(Cl)c(Cl)c2)cn1O [Compound 39, 5-(3,4-dichlorophenyl)-1-hydroxy-3-benzylhydropyrazin-2-one] | 45% @ 100 | – |
| O=c1c(Cc2ccccc2)nc(-c2ccc(-c3ccccc3)cc2)cn1O [Compound 17, 1-hydroxy-3-benzyl-5-(4-phenylphenyl)hydropyrazin-2-one] | 41% @ 100 | – |
| O=c1c(Cc2ccc(-c3ccccc3)cc2)nc(-c2ccc(Br)cc2)cn1O [Compound 31, 5-(4-bromophenyl)-1-hydroxy-3-[(4-phenylphenyl)methyl]hydropyrazin-2-one] | – | 5 µM |
| O=c1c(Cc2ccc(-c3ccccc3)cc2)nc(-c2ccc(N3CCOCC3)cc2)cn1O [Compound 26, 1-hydroxy-5-(4-morpholin-4-ylphenyl)-3-[(4-phenylphenyl)methyl] hydropyrazin-2-one] | 37% @ 100 | – |
| Cc1c(-c2ccccc2)nc(Cc2ccc(-c3ccccc3)cc2)c(=O)n1O [Compound 12, 3-(4′-phenyl)-benzyl-5-phenyl-6-methyl-1-hydroxy-2-oxo-1,2-dihydropyrazine] | – | 15 µM |
| O=c1c(Cc2ccc(-c3ccccc3)cc2)nc(-c2ccc(Cl)c(Cl)c2)cn1O [Compound 44, 5-(3,4-dichlorophenyl)-1-hydroxy-3-[(4-phenylphenyl)methyl] hydropyrazin-2-one] | 45% @ 100 | – |
| Cc1cc(-c2cn(O)c(=O)c(Cc3ccc(-c4ccccc4)cc3)n2)ccc1Cl [Compound 45, 5-(4-chloro-3-methylphenyl)-1-hydroxy-3-[(4-phenylphenyl)methyl] hydropyrazin-2-one] | 47% @ 100 | – |
| Cc1cc(-c2cn(O)c(=O)c(Cc3ccccc3)n2)ccc1Cl [Compound 40, 5-(4-chloro-3-methylphenyl)-1-hydroxy-3-benzylhydropyrazin-2-one] | 18% @ 100 | – |
| O=c1c(Cc2ccccc2)nc(-c2ccc(C(F)(F)F)cc2)cn1O [Compound 43, 1-hydroxy-3-benzyl-5-[4-(trifluoromethyl)phenyl]hydropyrazin-2-one] | 0% @ 100 | – |
| O=c1c(Cc2ccccc2)nc(-c2ccc(O)cc2)cn1O [Compound 21, 1-hydroxy-5-(4-hydroxyphenyl)-3-benzylhydropyrazin-2-one] | 7% @ 100 | – |
| O=c1c(Cc2ccccc2)nc(-c2ccc3c(c2)OCO3)cn1O [Compound 22, 5-(2H-benzo[d]1,3-dioxolen-5-yl)-1-hydroxy-3-benzylhydropyrazin-2-one] | 39% @ 100 | – |
| O=c1c(Cc2ccccc2)nc(-c2ccc(Br)cc2)cn1O [Compound 20, 5-(4-bromophenyl)-1-hydroxy-3-benzylhydropyrazin-2-one] | 63% @ 100 | – |
| Cc1ccc(-c2cn(O)c(=O)c(Cc3ccccc3)n2)cc1 [Compound 41, 1-hydroxy-5-(4-methylphenyl)-3-benzylhydropyrazin-2-one] | 13% @ 100 | – |
| O=c1c(Cc2ccccc2)nc(-c2ccc(C3CCCCC3)cc2)cn1O [Compound 18, 5-(4-cyclohexylphenyl)-1-hydroxy-3-benzylhydropyrazin-2-one] | – | 8 µM |
| N#Cc1ccc(-c2cn(O)c(=O)c(Cc3ccccc3)n2)cc1 [Compound 24, 4-[4-hydroxy-5-oxo-6-benzyl-4-hydropyrazin-2-yl]benzenecarbonitrile] | 41% @ 100 | – |
| O=c1c(Cc2ccc(-c3ccccc3)cc2)nc(-c2ccc3ccccc3c2)cn1O [Compound 30, 1-hydroxy-5-(2-naphthyl)-3-[(4-phenylphenyl)methyl]hydropyrazin-2-one] | 54% @ 100 | – |

Tested on: B anthracis
Assay: not given
Settings: monkey, in vivo; cited from earlier work

| Compound | monkeys that survived a lethal aerosol challenge |
| --- | --- |
| O=C(O)c1cn(C2CC2)c2cc(N3CCNCC3)c(F)cc2c1=O [ciprofloxacin] | 8 of 9 |
| penicillin | 7 of 10 |

From US6436933B1 (priority 2001, dated 2002)
